Measured values: patent US20230265116A1, “DEGRADATION OF (EGFR) BY CONJUGATION OF EGFR INHIBITORS WITH E3 LIGASE LIGAND AND METHODS OF USE” (BEIGENE, LTD., priority 2020, published 2023)

Experiments:
Format in all cases: cell-based
[1] = biological target: T1, EGFR L858R/T790M/C797S (BaF3-LTC cells) (Homo sapiens, UniProt P00533, C797S/L858R/T790M); test: EGFR degradation HTRF assay, BaF3-LTC cells; details: BaF3-LTC cells; for DC50: EGFR degradation, IC50 (DC50) from curve fit, read-out: DC50(nM) BaF3-LTC; for Dmax: maximum percentage of inhibition (degradation), read-out: Dmax (%) BaF3-LTC
T1 construct: expressed in transfected cells; host or cells: BaF3
Outline: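 EGFR remaining after a 16 h, 37 °C exposure (8 doses, 5-fold steps from 10 uM final, 0.2% DMSO) was quantified by HTRF antibodies in cell lysate. Percent inhibition relative to DMSO control was fitted by four-parameter logistic to give DC50; Dmax denotes maximal degradation.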

[2] = tested on: EGFR Del19/T790M/C797S (H1975-clone #28); test: EGFR degradation HTRF assay, H1975-clone #28 DTC cells; details: H1975 # 28 DTC cells; for DC50: EGFR degradation, IC50 (DC50) from curve fit, read-out: DC50(nM) H1975 # 28 DTC; for Dmax (%) H1975 # 28 DTC: maximum percentage of inhibition (degradation)
Outline: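 H1975 clones stably overexpressing mutant EGFR, with endogenous EGFR knocked out by sgRNA and homozygosity confirmed by sequencing, were treated 16h at 37° C. with compounds in 0.2% DMSO (top final 10 uM, 5-fold, 8 doses). Lysates were read by HTRF (665/620 nm); DC50 and Dmax came from fitting % degradation versus DMSO control.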

[3] = tested on: EGFR Del19/C797S (H1975-clone #23); test: EGFR degradation HTRF assay, H1975-clone #23 DC cells; details: 16h treatment; for H1975 #23 DC Dmax (%): maximum percentage of degradation; for DC50: H1975 #23 DC, read-out: H1975 #23 DC DC50
Procedure: H1975-clone #28(Del19/T790M/C797S) and H1975-clone #23(Del19/C797S). EGFR-Del19/T790M/C797S and EGFR-Del19/C797S were stably expressed in H1975 cell lines by lentivirus-mediated over-expression, respectively. The EGFR over-expressed cells then underwent gene knockout, in which the EGFR targeting sgRNA was designed to only target the endogenous EGFR copies and preserve the exogenous EGFR copies. Followed by the gene knockout, the edited H1975 cells were seeded in 96 well plates at the concentration of 1 cell/well, cultured for about 2 weeks to allow single clones formation. The formed clones were screened by DNA sequencing and whole exon sequencing analysis for the desired edition. H1975-clone #28 and H1975-clone #23 were finally confirmed as homozygous Del19/T790M/C797S EGFR and Del19/C797S EGFR clones, respectively.
BaF3 WT(wild type), BaF3-LTC(L858R/T790M/C797S) and BaF3-DTC(Del19/T790M/C797S) cells are treated with compounds diluted in 0.2% DMSO cell culture medium and incubate for 16h, 37° C., 5% CO2, H1975-#36, H1975-#28, H1975-#23 and HCC827 cells are treated with compounds diluted in 0.2% DMSO cell culture medium on day 2, incubate for 16h, 37° C., 5% CO2.the final concentriation of compounds in all assay is start with 10 uM, 5-fold dilution, total 8 doses were included.
After 16h treatment, add HTRF lysis buffer to each well; seal the plate and incubate 1 hour at room temperature on a plate shaker; Once the cells are lysed, 16 μL of cell lysate are transferred to a PE 384-well HTRF detection plate; 4 μL of pre-mixed HTRF antibodies are added to each well; Cover the plate with a plate sealer, spin 1000 rpm for 1 min, Incubate overnight at room temperature; Read on BMG PheraStar with HTRF protocol (337 nm-665 nm-620 nm).
The inhibition (degradation) percentage of the compound was calculated by the following equation: Inhibition percentage of Compound=100-100×(Signal-low control)/(High control-low control), wherein signal=each test compound group
High control=Cell group with added DMSO and without compound, indicating microplate readings without EGFR degradation;
Dmax is the maximum percentage of inhibition (degradation).
The IC50 (DC50) value of a compound can be obtained by fitting the following equation
Y=Bottom+(TOP−Bottom)/(1+((IC50/X)^hillslope))
Wherein, X and Y are known values, and IC50, Hillslope, Top and Bottom are the parameters obtained by fitting with software. Y is the inhibition percentage (calculated from the equation), X is the concentration of the compound; IC50 is the concentration of the compound when the 50% inhibition is reached. The smaller the IC50 value is, the stronger the inhibitory ability of the compound is. Vice versa, the higher the IC50 value is, the weaker the inhibitory ability of the compound is; Hillslope represents the slope of the fitted curve, generally around 1*; Bottom represents the minimum value of the curve obtained by data fitting, which is generally 0%±20%; Top represents the maximum value of the curve obtained by data fitting, which is generally 100%±20%. The experimental data were fitted by calculating and analyzing with Dotmatics data analysis software.

[4] = biological target: T2, EGFR L858R/C797S (BaF3 LC cells) (Homo sapiens, UniProt P00533, C797S/L858R); test: EGFR degradation HTRF assay, BaF3 LC cells; details: BaF3 LC, 16h treatment; for Dmax: maximum percentage of degradation, read-out: BaF3 LC Dmax (%); for DC50: read-out: BaF3 LC DC50
T2 construct: expressed in transfected cells; host or cells: BaF3
T2 sequence (P00533 25-1210 C797S/L858R): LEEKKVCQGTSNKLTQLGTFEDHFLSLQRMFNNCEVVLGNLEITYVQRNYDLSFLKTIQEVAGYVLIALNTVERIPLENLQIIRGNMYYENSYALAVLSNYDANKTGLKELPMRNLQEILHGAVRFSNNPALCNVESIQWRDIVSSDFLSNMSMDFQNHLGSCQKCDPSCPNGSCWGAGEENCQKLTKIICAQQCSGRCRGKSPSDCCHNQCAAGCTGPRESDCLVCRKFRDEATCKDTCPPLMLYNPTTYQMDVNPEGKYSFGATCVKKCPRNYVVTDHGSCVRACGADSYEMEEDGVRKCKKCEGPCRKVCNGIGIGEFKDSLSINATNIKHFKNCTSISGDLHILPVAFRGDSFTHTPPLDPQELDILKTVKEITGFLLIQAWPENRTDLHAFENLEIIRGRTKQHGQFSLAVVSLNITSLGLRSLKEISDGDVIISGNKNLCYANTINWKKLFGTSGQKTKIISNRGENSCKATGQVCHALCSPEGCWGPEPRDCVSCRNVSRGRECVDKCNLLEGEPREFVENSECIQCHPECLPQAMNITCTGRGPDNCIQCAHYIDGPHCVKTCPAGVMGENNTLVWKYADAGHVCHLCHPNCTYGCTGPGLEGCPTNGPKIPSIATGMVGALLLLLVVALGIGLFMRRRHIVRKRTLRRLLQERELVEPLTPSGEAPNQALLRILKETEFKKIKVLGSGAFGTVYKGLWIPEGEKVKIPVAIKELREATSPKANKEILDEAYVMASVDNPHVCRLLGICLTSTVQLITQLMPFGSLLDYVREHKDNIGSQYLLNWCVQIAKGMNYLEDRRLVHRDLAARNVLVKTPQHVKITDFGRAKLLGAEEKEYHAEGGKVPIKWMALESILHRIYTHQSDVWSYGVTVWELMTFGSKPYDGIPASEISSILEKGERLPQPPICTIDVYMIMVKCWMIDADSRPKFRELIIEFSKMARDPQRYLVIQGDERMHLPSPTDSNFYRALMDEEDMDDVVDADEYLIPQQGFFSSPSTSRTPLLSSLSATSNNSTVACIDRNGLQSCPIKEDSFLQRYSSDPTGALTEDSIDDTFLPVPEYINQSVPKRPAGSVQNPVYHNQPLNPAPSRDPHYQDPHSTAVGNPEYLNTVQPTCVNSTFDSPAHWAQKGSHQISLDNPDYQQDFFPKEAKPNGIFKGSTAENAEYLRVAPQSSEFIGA

T1 sequence (P00533 25-1210 T790M/C797S/L858R): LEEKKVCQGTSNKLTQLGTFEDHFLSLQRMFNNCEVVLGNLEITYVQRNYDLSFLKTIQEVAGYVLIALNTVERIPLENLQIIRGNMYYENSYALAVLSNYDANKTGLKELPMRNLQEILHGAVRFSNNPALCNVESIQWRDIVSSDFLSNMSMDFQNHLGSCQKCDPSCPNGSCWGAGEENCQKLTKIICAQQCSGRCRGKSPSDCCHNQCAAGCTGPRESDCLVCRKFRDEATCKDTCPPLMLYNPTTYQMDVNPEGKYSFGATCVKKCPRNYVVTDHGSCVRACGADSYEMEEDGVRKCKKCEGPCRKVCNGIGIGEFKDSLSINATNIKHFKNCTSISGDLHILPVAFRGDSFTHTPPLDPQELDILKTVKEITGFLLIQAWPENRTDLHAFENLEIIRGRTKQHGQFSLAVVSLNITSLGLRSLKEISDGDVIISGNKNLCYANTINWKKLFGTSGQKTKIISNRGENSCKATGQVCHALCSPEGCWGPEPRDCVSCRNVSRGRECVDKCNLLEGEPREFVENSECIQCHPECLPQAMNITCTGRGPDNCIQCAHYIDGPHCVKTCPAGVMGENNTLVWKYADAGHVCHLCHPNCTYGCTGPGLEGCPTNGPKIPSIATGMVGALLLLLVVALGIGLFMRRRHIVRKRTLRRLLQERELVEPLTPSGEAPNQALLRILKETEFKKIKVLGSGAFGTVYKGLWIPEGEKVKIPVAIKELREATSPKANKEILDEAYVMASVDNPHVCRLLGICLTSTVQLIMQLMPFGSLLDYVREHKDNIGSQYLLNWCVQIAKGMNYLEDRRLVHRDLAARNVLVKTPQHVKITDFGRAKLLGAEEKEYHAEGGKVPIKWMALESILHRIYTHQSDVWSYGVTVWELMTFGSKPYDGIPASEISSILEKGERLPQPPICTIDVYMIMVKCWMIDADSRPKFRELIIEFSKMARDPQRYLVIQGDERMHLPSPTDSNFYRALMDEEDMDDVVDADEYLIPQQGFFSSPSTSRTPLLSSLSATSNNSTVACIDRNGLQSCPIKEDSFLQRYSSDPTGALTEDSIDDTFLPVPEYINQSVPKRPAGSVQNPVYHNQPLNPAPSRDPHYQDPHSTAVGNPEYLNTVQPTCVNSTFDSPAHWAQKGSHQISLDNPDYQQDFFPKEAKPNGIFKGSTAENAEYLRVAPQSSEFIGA

Row | DC50 [1] | Dmax [1] | DC50 [2] | DC50 [3] | Dmax [4] | DC50 [4] | SMILES | Dmax (%) H1975 # 28 DTC [2] | H1975 #23 DC Dmax (%) [3]
1 | 3.39 nM | 95.5% | 0.605 nM | 3.07 nM | 79.5% | 4.28 nM | CCOc1cc(N2CCC(N3CCN(CCc4cc5oc(=O)n(C6CCC(=O)NC6=O)c5cc4F)CC3)CC2)c(CC)cc1Nc1ncc(Br)c(Nc2ccc3nc(CC)ccc3c2P(C)(C)=O)n1 (stereo not shown) [Example 492, 3-(6-(2-(4-(1-(4-((5-bromo-4-((5-(dimethylphosphoryl)-2-ethylquinolin-6-yl)amino)pyrimidin-2-yl)amino)-5-ethoxy-2-ethylphenyl)piperidin-4-yl)piperazin-1-yl)ethyl)-5-fluoro-2-oxobenzo[d]oxazol-3(2H)-yl)piperidine-2,6-dione] | 70.88% | 51.44%
2 | 7.93 nM | 92.5% | 0.887 nM | 1.94 nM | 80.4% | 15.5 nM | CCc1ccc2c(P(C)(C)=O)c(Nc3nc(Nc4cc(CC)c(N5CCC(N6CCN(CCc7cccc8c7oc(=O)n8C7CCC(=O)NC7=O)CC6)CC5)cc4OC)ncc3Br)ccc2n1 (stereo not shown) [Example 509, 3-(7-(2-(4-(1-(4-((5-bromo-4-((5-(dimethylphosphoryl)-2-ethylquinolin-6-yl)amino)pyrimidin-2-yl)amino)-2-ethyl-5-methoxyphenyl)piperidin-4-yl)piperazin-1-yl)ethyl)-2-oxobenzo[d]oxazol-3(2H)-yl)piperidine-2,6-dione] | 79.34% | 77.77%
3 | 11.6 nM | 90% | 2.6 nM | 1.48 nM | 89.8% | 21.7 nM | CCOc1cc(N2CCC(N3CCN(CCc4cc(C)cc5c4oc(=O)n5C4CCC(=O)NC4=O)CC3)CC2)c(CC)cc1Nc1ncc(Br)c(Nc2ccc3nc(CC)ccc3c2P(C)(C)=O)n1 (stereo not shown) [Example 469, 3-(7-(2-(4-(1-(4-((5-bromo-4-((5-(dimethylphosphoryl)-2-ethylquinolin-6-yl)amino)pyrimidin-2-yl)amino)-5-ethoxy-2-ethylphenyl)piperidin-4-yl)piperazin-1-yl)ethyl)-5-methyl-2-oxobenzo[d]oxazol-3(2H)-yl)piperidine-2,6-dione] | 81.32% | 73.64%
4 | 2.46 nM | 84.5% | 1.92 nM | > 16 nM | 92.7% | 1.94 nM | CCOc1cc(N2CCC(N3CCN(CCc4cc5oc(=O)n(C6CCC(=O)NC6=O)c5cc4C)CC3)CC2)c(CC)cc1Nc1ncc(Br)c(Nc2ccc3nc(CC)ccc3c2P(C)(C)=O)n1 (stereo not shown) [Example 465, 3-(6-(2-(4-(1-(4-((5-bromo-4-((5-(dimethylphosphoryl)-2-ethylquinolin-6-yl)amino)pyrimidin-2-yl)amino)-5-ethoxy-2-ethylphenyl)piperidin-4-yl)piperazin-1-yl)ethyl)-5-methyl-2-oxobenzo[d]oxazol-3(2H)-yl)piperidine-2,6-dione] | 70.68% | 48.97%
5 | 2.72 nM | – | 0.634 nM | 2.7 nM | – | 4.9 nM | CCc1ccc2c(P(C)(C)=O)c(Nc3nc(Nc4cc(C)c(N5CCC(N6CCN(CCc7cccc8c7n(C)c(=O)n8C7CCC(=O)NC7=O)CC6)CC5)cc4OC4CC4)ncc3Br)ccc2n1 (stereo not shown) [Example 584, 3-(4-(2-(4-(1-(4-((5-bromo-4-((5-(dimethylphosphoryl)-2-ethylquinolin-6-yl)amino)pyrimidin-2-yl)amino)-5-cyclopropoxy-2-methylphenyl)piperidin-4-yl)piperazin-1-yl)ethyl)-3-methyl-2-oxo-2,3-dihydro-1H-benzo[d]imidazol-1-yl)piperidine-2,6-dione] | 79.5% | 70.66%
6 | 3.02 nM | – | 0.404 nM | 5.49 nM | – | 57.2 nM | CCOc1cc(N2CCC(N3CCN(CCc4cc(F)c([C@H]5CCC(=O)NC5=O)c(F)c4)CC3)CC2)c(CC)cc1Nc1ncc(Br)c(Nc2ccc3c(=O)n(C)ncc3c2P(C)(C)=O)n1 [Example 502, (R)-3-(4-(2-(4-(1-(4-((5-bromo-4-((5-(dimethylphosphoryl)-2-methyl-1-oxo-1,2-dihydrophthalazin-6-yl)amino)pyrimidin-2-yl)amino)-5-ethoxy-2-ethylphenyl)piperidin-4-yl)piperazin-1-yl)ethyl)-2,6-difluorophenyl)piperidine-2,6-dione] | 88.96% | 75.93%
7 | 12.2 nM | 90.2% | 0.998 nM | 11.9 nM | 82.8% | 66.1 nM | CCOc1cc(N2CCC(N3CCN(CCc4cccc5c4n(C4CC4)c(=O)n5C4CCC(=O)NC4=O)CC3)CC2)c(CC)cc1Nc1ncc(Br)c(Nc2ccc3nc(CC)ccc3c2P(C)(C)=O)n1 (stereo not shown) [Example 468, 3-(4-(2-(4-(1-(4-((5-bromo-4-((5-(dimethylphosphoryl)-2-ethylquinolin-6-yl)amino)pyrimidin-2-yl)amino)-5-ethoxy-2-ethylphenyl)piperidin-4-yl)piperazin-1-yl)ethyl)-3-cyclopropyl-2-oxo-2,3-dihydro-1H-benzo[d]imidazol-1-yl)piperidine-2,6-dione] | 74.46% | 79.65%
8 | 6.34 nM | – | 1 nM | 1.76 nM | – | 2.23 nM | CCOc1cc(N2CCC(N3CCN(CCc4cccc5c4n(C)c(=O)n5C4CCC(=O)NC4=O)CC3)CC2)c(CC)cc1Nc1ncc(Br)c(Nc2ccc3nc(CC)ccc3c2P(C)(C)=O)n1 (stereo not shown) [Example 752, 3-(4-(2-(4-(1-(4-((5-bromo-4-((5-(dimethylphosphoryl)-2-ethylquinolin-6-yl)amino)pyrimidin-2-yl)amino)-5-ethoxy-2-ethylphenyl)piperidin-4-yl)piperazin-1-yl)ethyl)-3-methyl-2-oxo-2,3-dihydro-1H-benzo[d]imidazol-1-yl)piperidine-2,6-dione] | 77.12% | 78.99%
